Measured values taken from article PMC2866172 (Journal of medicinal chemistry, 2010).

What was measured:
[1] = Torso PET imaging in anesthetized baboons; details: for Calculated drug concentration in heart / Calculated drug concentration in kidney cortex / Calculated drug concentration in kidney medulla / Calculated drug concentration in liver / Calculated drug concentration in lung / Calculated drug concentration in plasma / Calculated drug concentration in gallbladder: 17 kg baboon; for Concentration in heart / Concentration in kidney cortex / Concentration in kidney medulla / Concentration in liver / Concentration in lung / Concentration in plasma / Concentration in gallbladder: baboon, i.v.
[2] = Brain PET imaging in anesthetized baboons; details: for Estimated concentration in whole brain, C30min / Concentration in whole brain, C30min: 30 min; for Estimated concentration in whole brain, C30min / Estimated concentration in whole brain, C60min / Estimated concentration in whole brain, C90min: signal assumed intact drug; for Estimated concentration in whole brain, C60min / Concentration in whole brain, C60min: 60 min; for Estimated concentration in whole brain, C90min / Concentration in whole brain, C90min: 90 min; for Concentration in whole brain, C30min / Concentration in whole brain, C60min / Concentration in whole brain, C90min: baboon, i.v.
[3] = 15 min, calculated assuming 20 mg/kg dose
[4] = 30 min, calculated assuming 20 mg/kg dose
[5] = 60 min, calculated assuming 20 mg/kg dose
[6] = 90 min, calculated assuming 20 mg/kg dose
[7] = estimated from baboon weight, 20 mg/kg dose
[8] = 15 min, calculated assuming 10 mg/kg dose
[9] = 30 min, calculated assuming 10 mg/kg dose
[10] = 60 min, calculated assuming 10 mg/kg dose
[11] = 90 min, calculated assuming 10 mg/kg dose
[12] = estimated for 17 kg baboon, 10 mg/kg dose

## N[11C](=O)c1cnccn1 [[^11C]PZA]
[1]; [3]
  Calculated drug concentration in heart: (67.76) µg/ml
  Calculated drug concentration in kidney cortex: (20.52) µg/ml
  Calculated drug concentration in kidney medulla: (617.02) µg/ml
  Calculated drug concentration in liver: (36.14) µg/ml
  Calculated drug concentration in lung: (35.03) µg/ml
  Calculated drug concentration in plasma: (22.03) µg/ml
[1]; [4]
  Calculated drug concentration in heart: (61.50) µg/ml
  Calculated drug concentration in kidney cortex: (16.59) µg/ml
  Calculated drug concentration in kidney medulla: (474.39) µg/ml
  Calculated drug concentration in liver: (26.96) µg/ml
  Calculated drug concentration in lung: (26.48) µg/ml
  Calculated drug concentration in plasma: (14.59) µg/ml
[1]; [5]
  Calculated drug concentration in heart: (57.59) µg/ml
  Calculated drug concentration in kidney cortex: (12.55) µg/ml
  Calculated drug concentration in kidney medulla: (343.00) µg/ml
  Calculated drug concentration in liver: (21.98) µg/ml
  Calculated drug concentration in lung: (22.17) µg/ml
  Calculated drug concentration in plasma: (11.25) µg/ml
[1]; [6]
  Calculated drug concentration in heart: (59.49) µg/ml
  Calculated drug concentration in kidney cortex: (9.93) µg/ml
  Calculated drug concentration in kidney medulla: (229.44) µg/ml
  Calculated drug concentration in liver: (19.19) µg/ml
  Calculated drug concentration in lung: (18.58) µg/ml
  Calculated drug concentration in plasma: (9.04) µg/ml
[1]; 15 min after administration
  Concentration in heart: 0.0199 %ID/cc
  Concentration in kidney cortex: 0.0060 %ID/cc
  Concentration in kidney medulla: 0.1815 %ID/cc
  Concentration in liver: 0.0106 %ID/cc
  Concentration in lung: 0.0103 %ID/cc
  Concentration in plasma: 0.00648 %ID/cc
[1]; 30 min after administration
  Concentration in heart: 0.0181 %ID/cc
  Concentration in kidney cortex: 0.0049 %ID/cc
  Concentration in kidney medulla: 0.1395 %ID/cc
  Concentration in liver: 0.0079 %ID/cc
  Concentration in lung: 0.0078 %ID/cc
  Concentration in plasma: 0.00429 %ID/cc
[1]; 60 min after administration
  Concentration in heart: 0.0169 %ID/cc
  Concentration in kidney cortex: 0.0037 %ID/cc
  Concentration in kidney medulla: 0.1009 %ID/cc
  Concentration in liver: 0.0065 %ID/cc
  Concentration in lung: 0.0065 %ID/cc
  Concentration in plasma: 0.00331 %ID/cc
[1]; 90 min after administration
  Concentration in heart: 0.0175 %ID/cc
  Concentration in kidney cortex: 0.0029 %ID/cc
  Concentration in kidney medulla: 0.0675 %ID/cc
  Concentration in liver: 0.0056 %ID/cc
  Concentration in lung: 0.0055 %ID/cc
  Concentration in plasma: 0.00266 %ID/cc
[2]; [7]
  Estimated concentration in whole brain, C30min: 21.05 µg/mL
  Estimated concentration in whole brain, C60min: 15.74 µg/mL
  Estimated concentration in whole brain, C90min: 13.70 µg/mL
[2]
  Concentration in whole brain, C30min: 0.00619 %ID/cc
  Concentration in whole brain, C60min: 0.00463 %ID/cc
  Concentration in whole brain, C90min: 0.00403 %ID/cc

## CO[C@H]1/C=C/O[C@@]2(C)Oc3c(C)c(O)c4cc(c(/C=N/N5CCN([11CH3])CC5)c(O)c4c3C2=O)NC(=O)/C(C)=C\C=C\C(C)[C@H](O)[C@@H](C)[C@@H](O)[C@@H](C)[C@H](OC(C)=O)[C@@H]1C (stereo partly drawn) [[^11C]RIF]
[1]; [8]
  Calculated drug concentration in gallbladder: (121.40) µg/ml
  Calculated drug concentration in heart: (7.28) µg/ml
  Calculated drug concentration in kidney cortex: (15.79) µg/ml
  Calculated drug concentration in kidney medulla: (36.39) µg/ml
  Calculated drug concentration in liver: (258.98) µg/ml
  Calculated drug concentration in lung: (5.03) µg/ml
  Calculated drug concentration in plasma: (2.81) µg/ml
[1]; [9]
  Calculated drug concentration in gallbladder: (586.34) µg/ml
  Calculated drug concentration in heart: (5.28) µg/ml
  Calculated drug concentration in kidney cortex: (6.34) µg/ml
  Calculated drug concentration in kidney medulla: (11.63) µg/ml
  Calculated drug concentration in liver: (276.12) µg/ml
  Calculated drug concentration in lung: (2.83) µg/ml
  Calculated drug concentration in plasma: (1.50) µg/ml
[1]; [10]
  Calculated drug concentration in gallbladder: (983.24) µg/ml
  Calculated drug concentration in heart: (1.93) µg/ml
  Calculated drug concentration in kidney cortex: (0.43) µg/ml
  Calculated drug concentration in kidney medulla: (6.73) µg/ml
  Calculated drug concentration in liver: (288.05) µg/ml
  Calculated drug concentration in lung: (2.53) µg/ml
  Calculated drug concentration in plasma: (1.14) µg/ml
[1]; [11]
  Calculated drug concentration in gallbladder: (1009.99) µg/ml
  Calculated drug concentration in heart: (6.80) µg/ml
  Calculated drug concentration in kidney cortex: (8.19) µg/ml
  Calculated drug concentration in kidney medulla: (9.44) µg/ml
  Calculated drug concentration in liver: (299.73) µg/ml
  Calculated drug concentration in plasma: (1.16) µg/ml
[1]; 15 min after administration
  Concentration in gallbladder: 0.0714 %ID/cc
  Concentration in heart: 0.0043 %ID/cc
  Concentration in kidney cortex: 0.0093 %ID/cc
  Concentration in kidney medulla: 0.0214 %ID/cc
  Concentration in liver: 0.1523 %ID/cc
  Concentration in lung: 0.003 %ID/cc
  Concentration in plasma: 0.00165 %ID/cc
[1]; 30 min after administration
  Concentration in gallbladder: 0.3449 %ID/cc
  Concentration in heart: 0.0031 %ID/cc
  Concentration in kidney cortex: 0.0037 %ID/cc
  Concentration in kidney medulla: 0.0068 %ID/cc
  Concentration in liver: 0.1624 %ID/cc
  Concentration in lung: 0.0017 %ID/cc
  Concentration in plasma: 0.00088 %ID/cc
[1]; 60 min after administration
  Concentration in gallbladder: 0.5784 %ID/cc
  Concentration in heart: 0.0011 %ID/cc
  Concentration in kidney cortex: 0.0003 %ID/cc
  Concentration in kidney medulla: 0.004 %ID/cc
  Concentration in liver: 0.1694 %ID/cc
  Concentration in lung: 0.0015 %ID/cc
  Concentration in plasma: 0.00067 %ID/cc
[1]; 90 min after administration
  Concentration in gallbladder: 0.5941 %ID/cc
  Concentration in heart: 0.004 %ID/cc
  Concentration in kidney cortex: 0.0048 %ID/cc
  Concentration in kidney medulla: 0.0056 %ID/cc
  Concentration in liver: 0.1763 %ID/cc
  Concentration in plasma: 0.00068 %ID/cc
[2]; [12]
  Estimated concentration in whole brain, C30min: 1.09 µg/mL
  Estimated concentration in whole brain, C60min: 0.912 µg/mL
  Estimated concentration in whole brain, C90min: 1.21 µg/mL
[2]
  Concentration in whole brain, C30min: 0.000642 %ID/cc
  Concentration in whole brain, C60min: 0.000536 %ID/cc
  Concentration in whole brain, C90min: 0.00071 %ID/cc
